{"source": "ChEMBL document CHEMBL5465560", "about": "“Selectivity Literature for EUbOPEN Chemogenomic Library” (2024)", "key": {"[1]": {"target": "T1, Cyclin-dependent kinase-like 5 (Homo sapiens) (UniProt O76039)", "T1 sequence (whole entry)": "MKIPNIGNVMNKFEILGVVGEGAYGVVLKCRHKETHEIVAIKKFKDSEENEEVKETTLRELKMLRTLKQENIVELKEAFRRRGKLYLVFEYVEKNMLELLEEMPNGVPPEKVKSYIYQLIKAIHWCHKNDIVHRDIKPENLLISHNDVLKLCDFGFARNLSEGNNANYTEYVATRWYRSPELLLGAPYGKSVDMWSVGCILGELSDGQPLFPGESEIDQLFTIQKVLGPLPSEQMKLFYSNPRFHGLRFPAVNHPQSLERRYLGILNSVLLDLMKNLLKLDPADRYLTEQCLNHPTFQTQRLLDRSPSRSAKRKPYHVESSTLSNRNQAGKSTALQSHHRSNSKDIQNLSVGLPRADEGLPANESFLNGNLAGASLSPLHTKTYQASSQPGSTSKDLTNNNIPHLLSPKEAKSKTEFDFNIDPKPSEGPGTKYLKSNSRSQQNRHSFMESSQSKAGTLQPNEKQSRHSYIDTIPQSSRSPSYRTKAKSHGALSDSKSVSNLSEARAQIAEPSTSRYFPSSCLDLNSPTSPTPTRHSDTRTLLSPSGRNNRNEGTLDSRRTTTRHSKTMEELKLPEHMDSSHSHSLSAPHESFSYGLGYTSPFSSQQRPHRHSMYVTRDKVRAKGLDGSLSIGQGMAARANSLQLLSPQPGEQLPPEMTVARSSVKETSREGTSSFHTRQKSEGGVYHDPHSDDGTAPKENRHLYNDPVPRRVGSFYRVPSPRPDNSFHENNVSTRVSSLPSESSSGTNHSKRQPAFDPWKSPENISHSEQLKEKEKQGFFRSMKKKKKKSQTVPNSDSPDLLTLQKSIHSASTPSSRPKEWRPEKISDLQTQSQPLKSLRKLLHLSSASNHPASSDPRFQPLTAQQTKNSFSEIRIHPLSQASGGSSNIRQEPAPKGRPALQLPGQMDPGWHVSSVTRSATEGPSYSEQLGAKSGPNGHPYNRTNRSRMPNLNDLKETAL", "assay": "Selectivity interaction (KinomeScan (DiscoverX)) EUB0001049a CDKL5", "conditions": "at 1 µM"}, "[2]": {"target": "T2, Discoidin domain-containing receptor 2 (Homo sapiens) (UniProt Q16832)", "T2 sequence (whole entry)": "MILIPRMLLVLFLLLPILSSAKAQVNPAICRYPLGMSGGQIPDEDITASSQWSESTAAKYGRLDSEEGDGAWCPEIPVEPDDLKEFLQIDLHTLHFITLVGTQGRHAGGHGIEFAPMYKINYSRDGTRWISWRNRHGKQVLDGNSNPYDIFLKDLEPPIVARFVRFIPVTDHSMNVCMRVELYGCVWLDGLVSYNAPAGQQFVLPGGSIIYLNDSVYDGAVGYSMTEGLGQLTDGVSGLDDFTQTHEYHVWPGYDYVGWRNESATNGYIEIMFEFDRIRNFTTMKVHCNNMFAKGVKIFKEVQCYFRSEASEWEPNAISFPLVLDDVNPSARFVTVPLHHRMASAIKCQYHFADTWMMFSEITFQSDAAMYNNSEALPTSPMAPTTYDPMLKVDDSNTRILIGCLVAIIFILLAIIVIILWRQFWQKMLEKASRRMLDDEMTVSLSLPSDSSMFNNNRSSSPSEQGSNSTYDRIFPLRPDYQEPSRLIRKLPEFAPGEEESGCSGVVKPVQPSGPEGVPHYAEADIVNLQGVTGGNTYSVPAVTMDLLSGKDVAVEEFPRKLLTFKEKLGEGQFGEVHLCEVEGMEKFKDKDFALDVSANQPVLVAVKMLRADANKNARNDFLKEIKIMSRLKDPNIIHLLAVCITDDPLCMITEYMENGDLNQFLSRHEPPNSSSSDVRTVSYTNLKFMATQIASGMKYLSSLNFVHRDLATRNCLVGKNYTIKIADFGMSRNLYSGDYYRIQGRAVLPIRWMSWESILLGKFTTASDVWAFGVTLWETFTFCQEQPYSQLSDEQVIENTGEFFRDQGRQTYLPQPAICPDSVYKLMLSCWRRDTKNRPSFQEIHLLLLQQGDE", "assay": "Selectivity interaction (KinomeScan (DiscoverX)) EUB0001079a DDR2", "conditions": "at 1 µM"}, "[3]": {"target": "T3, Receptor-interacting serine/threonine-protein kinase 1 (Homo sapiens) (UniProt Q13546)", "T3 sequence (whole entry)": "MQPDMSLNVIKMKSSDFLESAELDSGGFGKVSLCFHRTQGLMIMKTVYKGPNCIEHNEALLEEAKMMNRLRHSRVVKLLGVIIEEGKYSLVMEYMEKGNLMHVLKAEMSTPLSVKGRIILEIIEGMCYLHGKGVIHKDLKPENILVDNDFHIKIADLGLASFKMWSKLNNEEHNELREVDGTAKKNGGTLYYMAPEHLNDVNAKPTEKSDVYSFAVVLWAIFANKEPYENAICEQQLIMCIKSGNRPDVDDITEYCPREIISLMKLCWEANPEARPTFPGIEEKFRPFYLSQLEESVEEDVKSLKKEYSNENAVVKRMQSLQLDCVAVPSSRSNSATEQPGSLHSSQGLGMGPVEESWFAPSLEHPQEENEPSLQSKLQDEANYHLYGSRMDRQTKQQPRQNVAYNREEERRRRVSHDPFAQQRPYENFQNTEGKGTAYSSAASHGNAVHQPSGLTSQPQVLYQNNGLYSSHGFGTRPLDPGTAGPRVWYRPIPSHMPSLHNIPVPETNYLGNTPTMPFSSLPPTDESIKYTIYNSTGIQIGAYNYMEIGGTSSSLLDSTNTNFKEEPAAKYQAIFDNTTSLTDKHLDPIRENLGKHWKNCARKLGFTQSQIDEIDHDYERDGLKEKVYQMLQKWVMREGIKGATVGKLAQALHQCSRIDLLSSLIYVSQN", "conditions": "at 10 µM"}, "[4]": {"target": "T4, Mitogen-activated protein kinase 12 (Homo sapiens) (UniProt P53778)", "T4 sequence (whole entry)": "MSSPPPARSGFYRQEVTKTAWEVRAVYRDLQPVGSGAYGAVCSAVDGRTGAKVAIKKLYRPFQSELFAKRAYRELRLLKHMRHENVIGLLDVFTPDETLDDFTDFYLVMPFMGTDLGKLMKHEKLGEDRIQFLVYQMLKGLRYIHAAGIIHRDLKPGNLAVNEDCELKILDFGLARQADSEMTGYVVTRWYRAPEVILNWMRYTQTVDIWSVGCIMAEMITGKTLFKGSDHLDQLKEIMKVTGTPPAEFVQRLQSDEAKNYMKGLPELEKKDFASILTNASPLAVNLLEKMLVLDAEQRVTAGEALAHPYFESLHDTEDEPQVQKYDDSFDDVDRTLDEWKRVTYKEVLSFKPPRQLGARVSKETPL", "assay": "Selectivity interaction (KinomeScan (DiscoverX)) EUB0000092b MAPK12", "conditions": "at 10 µM"}, "[5]": {"target": "Ephrin type-A receptor 5 (Homo sapiens) (UniProt P54756)", "sequence (P54756 whole entry)": "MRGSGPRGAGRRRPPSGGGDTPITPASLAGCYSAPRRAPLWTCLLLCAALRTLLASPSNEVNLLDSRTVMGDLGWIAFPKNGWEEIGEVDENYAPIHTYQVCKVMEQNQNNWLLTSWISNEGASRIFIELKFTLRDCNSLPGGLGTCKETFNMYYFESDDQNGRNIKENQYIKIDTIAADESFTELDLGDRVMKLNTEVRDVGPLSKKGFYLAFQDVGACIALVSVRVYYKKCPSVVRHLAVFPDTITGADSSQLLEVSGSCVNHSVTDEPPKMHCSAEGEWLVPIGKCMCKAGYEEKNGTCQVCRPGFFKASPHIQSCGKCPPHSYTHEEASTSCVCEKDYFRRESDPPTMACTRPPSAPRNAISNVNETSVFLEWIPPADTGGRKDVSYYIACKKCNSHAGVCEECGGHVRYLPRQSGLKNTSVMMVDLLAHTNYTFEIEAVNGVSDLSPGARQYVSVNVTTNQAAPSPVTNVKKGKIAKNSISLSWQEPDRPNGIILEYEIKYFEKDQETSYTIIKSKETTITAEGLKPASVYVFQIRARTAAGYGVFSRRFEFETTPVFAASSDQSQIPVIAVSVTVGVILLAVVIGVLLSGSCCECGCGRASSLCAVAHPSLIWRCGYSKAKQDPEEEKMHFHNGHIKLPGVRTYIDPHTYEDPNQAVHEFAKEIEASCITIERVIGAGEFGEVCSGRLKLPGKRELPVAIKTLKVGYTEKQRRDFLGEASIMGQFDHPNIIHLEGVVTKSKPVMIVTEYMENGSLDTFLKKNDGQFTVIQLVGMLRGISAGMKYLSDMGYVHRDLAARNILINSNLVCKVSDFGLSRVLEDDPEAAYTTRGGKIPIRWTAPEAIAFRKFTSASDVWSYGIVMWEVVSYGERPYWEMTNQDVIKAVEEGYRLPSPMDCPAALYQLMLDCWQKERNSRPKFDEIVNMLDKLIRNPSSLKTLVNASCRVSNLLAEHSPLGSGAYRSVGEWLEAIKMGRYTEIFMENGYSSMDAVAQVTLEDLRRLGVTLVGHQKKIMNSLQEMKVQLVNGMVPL", "assay": "Selectivity interaction (KinomeScan (DiscoverX)) EUB0000607a EPHA5", "conditions": "at 10 µM"}}, "data": [{"smiles": "COc1cc(Nc2nc(C)cc(-c3cnn4nc(OC)ccc34)n2)cc(C(F)(F)F)c1", "values": [{"measurement": "% of control", "setting": "[1]", "value": 82, "unit": "%"}]}, {"smiles": "Nc1cnc(N2CCc3cc(S(=O)(=O)Nc4c(F)cc(Cl)cc4F)cc(N4CCCC4=O)c32)nc1", "note": "[TP-020n]", "values": [{"measurement": "% of control", "setting": "[2]", "value": 100, "unit": "%"}]}, {"smiles": "CCN(CC)CCCCNc1ncc2cc(-c3cc(OC)cc(OC)c3)c(NC(=O)NC(C)(C)C)nc2n1", "values": [{"measurement": "% of control", "setting": "[3]", "value": 100, "unit": "%"}]}, {"smiles": "CCC(=O)N1CCN(c2ccc(-n3c(=O)ccc4cnc5ccc(-c6cnc7ccccc7c6)cc5c43)cc2C(F)(F)F)CC1", "values": [{"measurement": "% of control", "setting": "[4]", "value": 71, "unit": "%"}]}, {"smiles": "CNC(=O)Nc1ccc(-c2nc(N3CC4CCC(C3)O4)c3cnn(C4CCC5(CC4)OCCO5)c3n2)cc1", "values": [{"measurement": "% of control", "setting": "[5]", "value": 92, "unit": "%"}]}]}
